# US20250271442A1, “Methods for Detecting Renal Disease” (IDEXX Laboratories, Inc., priority 2013, published 2025)
# Key:
# Assay type in all cases: binding
# [1] = test system: rabbit anti-SDMA antibody in serum, Rabbit # 152 (SDMA-KLH immunogen); test: Competitive ELISA, specificity of rabbit anti-SDMA antiserum, Rabbit #152; settings: Rabbit # 152 antiserum (1:5K); for % Cross Reactivity: IC50 of SDMA / IC50 of competitor x 100; for IC 50: competition with SDMA-HRP conjugate, absorbance 450 nm
# Method: (§1) The immunization protocol for generating the anti-SDMA antibodies was carried out according to the following protocol. Six California breed rabbits were immunized with an SDMA-conjugate. Three of the six rabbits were immunized with SDMA conjugated with BSA (rabbits #155, 156 and 157) and the other three rabbits were immunized with SDMA conjugated with KLH (rabbits #152, 153 and 154) (prepared as described in Example 2). For primary immunizations, each rabbit was injected with 0.5 mg of the SDMA conjugate in 1 ml of phosphate buffered saline (PBS) mixed with 1 ml of Freund's complete adjuvant. Each rabbit received 20-30 intradermal injections on their shaved back. Each rabbit was boosted with 0.25 mg of immunogen in 1 ml PBS mixed with equal volume of Freund's incomplete adjuvant in the hind legs. The boosting shots were given each month after the primary injection. Test bleeds of 5 ml blood were taken from each rabbit 7-10 days after each boost. Production bleeds of 40 ml were taken from each rabbit after the third booster shot, when the antisera titer was greater than about 1:2000. Antiserum titer is the dilution of antiserum that generates the steepest calibration curve for the assay.
# (§2) In order to assess the specificity of the antibodies obtained by the procedures described in Example 3 above, their reactivity to SDMA, ADMA, L-arginine, and/or N-methylarginine was measured in a competitive ELISA assay (Table 1).
# (§3) ADMA-2HCl, SDMA-2HCl, N-methylarginine acetate (Sigma, Cat. No. M7033) or L-arginine (Sigma, Cat. No. A5006) were each dissolved in PBS to make stock solutions at 1 mg/ml. From these stock solutions, working solutions at 100 μg/ml, 10 μg/ml and 1 μg/ml were prepared in PBS.
# (§4) […] After a 30 minutes incubation period at room temperature, the wells were washed 4 times with PBST (Phosphate Buffered Saline, 0.05% Tween).
# (§5) 100 μl of 3,3′,5,5′-Tetramethylbenzidine (commercially available from Promega Corporation of Madison, WI) was subsequently added. Following a 30 minutes incubation period at room temperature, 100 μl of stop solution (1 N HCl) was added and the absorbance was measured at 450 nm using a BioTek ELX 808 (Winooski, VT) plate reader. The data was subjected to quantification using Softmax software (Molecular Devices, Sunnyvale, CA).
# (§6) The absorbance values obtained with 0 μg/mL, 1 μg/mL, 10 μg/mL, and 100 μg/mL of ADMA, SDMA, N-methylarginine or L-arginine, respectively, were determined and plotted. The concentration of SDMA at which the absorbance value was reduced by 50% (relative to the maximum absorbance obtained at 0 μg/mL SDMA; i.e. IC50) was divided by each of the concentrations of ADMA, N-methylarginine or L-arginine, respectively, at which the absorbance value was reduced by 50% (IC50). The resulting value was multiplied by 100 to obtain the value “% cross-reactivity”.
# [2] = test system: rabbit anti-SDMA antibody in serum, Rabbit # 153 (SDMA-KLH immunogen); test: Competitive ELISA, specificity of rabbit anti-SDMA antiserum, Rabbit #153; settings: Rabbit # 153 antiserum (1:2.5K); for % Cross Reactivity: IC50 of SDMA / IC50 of competitor x 100; for IC 50: competition with SDMA-HRP conjugate, absorbance 450 nm
# Method: as §1, §2, §3, §4, §5, §6
# [3] = test system: rabbit anti-SDMA antibody in serum, Rabbit # 154 (SDMA-KLH immunogen); test: Competitive ELISA, specificity of rabbit anti-SDMA antiserum, Rabbit #154; settings: Rabbit # 154 antiserum (1.25K); for % Cross Reactivity: IC50 of SDMA / IC50 of competitor x 100; for IC 50: competition with SDMA-HRP conjugate, absorbance 450 nm
# Method: as §1, §2, §3, §4, §5, §6
# [4] = test system: rabbit anti-SDMA antibody in serum, Rabbit # 155 (SDMA-BSA immunogen); test: Competitive ELISA, specificity of rabbit anti-SDMA antiserum, Rabbit #155; settings: Rabbit # 155 antiserum (1:3K); for % Cross Reactivity: IC50 of SDMA / IC50 of competitor x 100; for IC 50: competition with SDMA-HRP conjugate, absorbance 450 nm
# Method: as §1, §2, §3
# (§7) 50 μl of the SDMA-HRP conjugate (as described in Example 5 below), 50 μl of ADMA, SDMA, N-methylarginine or L-arginine (at concentrations from 1-100 μg/ml as described above), and 50 μl of rabbit anti-SDMA antibody in serum (1:3000 titer) were sequentially added to an individual well in a 96-well polystyrene microwell plate, precoated with sheep anti-rabbit IgG (commercially available from Beacon Analytical Systems Inc. of Portland, ME). After a 30 minutes incubation period at room temperature, the wells were washed 4 times with PBST (Phosphate Buffered Saline, 0.05% Tween).
# as §5, §6
# [5] = test system: rabbit anti-SDMA antibody in serum, Rabbit # 156 (SDMA-BSA immunogen); test: Competitive ELISA, specificity of rabbit anti-SDMA antiserum, Rabbit #156; settings: Rabbit # 156 antiserum (1:20K); for % Cross Reactivity: IC50 of SDMA / IC50 of competitor x 100; for IC 50: competition with SDMA-HRP conjugate, absorbance 450 nm
# Method: as §1, §2, §3, §4, §5, §6
# [6] = test system: rabbit anti-SDMA antibody in serum, Rabbit # 157 (SDMA-BSA immunogen); test: Competitive ELISA, specificity of rabbit anti-SDMA antiserum, Rabbit #157; settings: Rabbit # 157 antiserum (1:15K); for % Cross Reactivity: IC50 of SDMA / IC50 of competitor x 100; for IC 50: competition with SDMA-HRP conjugate, absorbance 450 nm
# Method: as §1, §2, §3, §4, §5, §6
# [7] = test system: polyclonal antibody from Rabbit No. 154 (anti-SDMA); test: Competitive ELISA, specificity with greater stringency, polyclonal antibody from Rabbit No. 154; settings: polyclonal antibody from Rabbit No. 154, determined with greater stringency
# Method: as §7, §5, §6
# In another experiment, using only polyclonal antibody from Rabbit No. 154, the specificity of the antibody was determined with greater stringency by the method described above.
IC 50 [1],IC 50 [2],IC 50 [3],IC 50 [4],IC 50 [5],IC 50 [6],Structure (SMILES),% Cross Reactivity [1],% Cross Reactivity [2],% Cross Reactivity [3],% Cross Reactivity [4],% Cross Reactivity [5],% Cross Reactivity [6],Specificity (Cross-Reactivity) Rabbit No. 154 Cross-reactivity [7]
>100 µg/mL,>100 µg/mL,>100 µg/mL,>100 µg/mL,>100 µg/mL,>100 µg/mL,"CN(C)C(=N)NCCCC(N)C(=O)O (stereo not drawn) [ADMA, asymmetrical dimethylarginine]",<1%,<1%,<1%,<1%,<1%,<1%,<0.2%
>100 µg/mL,>100 µg/mL,>100 µg/mL,79 µg/mL,>100 µg/mL,>100 µg/mL,"CNC(=N)NCCCC(N)C(=O)O (stereo not drawn) [N-MMA, N-monomethylarginine]",<1%,<1%,<1%,<1%,<1%,<1%,
1.10 µg/mL,0.65 µg/mL,0.49 µg/mL,0.73 µg/mL,1.3 µg/mL,1.6 µg/mL,"C/N=C(\NC)NCCCC(N)C(=O)O (stereo not drawn) [SDMA, symmetrical dimethylarginine]",100%,100%,100%,100%,100%,100%,100%

Structure (SMILES),IC 50 [1],IC 50 [2],IC 50 [3],IC 50 [4],IC 50 [5],IC 50 [6],% Cross Reactivity [1],% Cross Reactivity [2],% Cross Reactivity [3],% Cross Reactivity [4],% Cross Reactivity [5],% Cross Reactivity [6],Specificity (Cross-Reactivity) Rabbit No. 154 Cross-reactivity [7]
"N=C(N)NCCC[C@H](N)C(=O)O [L-Arginine, L-arginine]",>100 µg/mL,>100 µg/mL,>100 µg/mL,>100 µg/mL,>100 µg/mL,>100 µg/mL,<1%,<1%,<1%,<1%,<1%,<1%,<0.01%
